Laboratory results: ChEMBL document CHEMBL1153245, “A profile of the in vitro anti-tumor activity of imidazolium-based ionic liquids” (2010)

How the values were obtained:
Assay type in all cases: functional
[1] = tested on: ACHN; assay: Anticancer activity against human ACHN cells assessed cell growth at 10 uM after 48 hrs by sulforhodamine B assay relative to control
[2] = tested on: CAKI-1; assay: Anticancer activity against human Caki1 cells assessed cell growth at 10 uM after 48 hrs by sulforhodamine B assay relative to control
[3] = tested on: TK-10; assay: Anticancer activity against human TK10 cells assessed cell growth at 10 uM after 48 hrs by sulforhodamine B assay relative to control
[4] = tested on: UO-31; assay: Anticancer activity against human UO31 cells assessed cell growth at 10 uM after 48 hrs by sulforhodamine B assay relative to control
[5] = tested on: PC-3; assay: Anticancer activity against human PC3 cells assessed cell growth at 10 uM after 48 hrs by sulforhodamine B assay relative to control
[6] = tested on: DU-145; assay: Anticancer activity against human DU145 cells assessed cell growth at 10 uM after 48 hrs by sulforhodamine B assay relative to control
[7] = tested on: NCI/ADR-RES; assay: Anticancer activity against human NCI/ADR-RES cells assessed cell growth at 10 uM after 48 hrs by sulforhodamine B assay relative to control
[8] = tested on: MDA-MB-435; assay: Anticancer activity against human MDA-MB-435 cells assessed cell growth at 10 uM after 48 hrs by sulforhodamine B assay relative to control
[9] = tested on: BT-549; assay: Anticancer activity against human BT549 cells assessed cell growth at 10 uM after 48 hrs by sulforhodamine B assay relative to control
[10] = tested on: T47D; assay: Anticancer activity against human T47D cells assessed cell growth at 10 uM after 48 hrs by sulforhodamine B assay relative to control
[11] = tested on: MDA-MB-468; assay: Anticancer activity against human MDA-MB-468 cells assessed cell growth at 10 uM after 48 hrs by sulforhodamine B assay relative to control
[12] = tested on: K562; assay: Anticancer activity against human K562 cells assessed cell growth at 10 uM after 48 hrs by sulforhodamine B assay relative to control
[13] = Anticancer activity against human RPMI8266 cells assessed cell growth at 10 uM after 48 hrs by sulforhodamine B assay relative to control
[14] = tested on: SR; assay: Anticancer activity against human SR cells assessed cell growth at 10 uM after 48 hrs by sulforhodamine B assay relative to control
[15] = tested on: A549; assay: Anticancer activity against human A549 cells assessed cell growth at 10 uM after 48 hrs by sulforhodamine B assay relative to control
[16] = tested on: HOP-62; assay: Anticancer activity against human HOP62 cells assessed cell growth at 10 uM after 48 hrs by sulforhodamine B assay relative to control
[17] = tested on: HOP-92; assay: Anticancer activity against human HOP92 cells assessed cell growth at 10 uM after 48 hrs by sulforhodamine B assay relative to control
[18] = tested on: NCI-H226; assay: Anticancer activity against human NCI-H226 cells assessed cell growth at 10 uM after 48 hrs by sulforhodamine B assay relative to control
[19] = tested on: NCI-H460; assay: Anticancer activity against human NCI-H460 cells assessed cell growth at 10 uM after 48 hrs by sulforhodamine B assay relative to control
[20] = tested on: NCI-H522; assay: Anticancer activity against human NCI-H522 cells assessed cell growth at 10 uM after 48 hrs by sulforhodamine B assay relative to control
[21] = tested on: COLO 205; assay: Anticancer activity against human COLO205 cells assessed cell growth at 10 uM after 48 hrs by sulforhodamine B assay relative to control
[22] = tested on: HCC 2998; assay: Anticancer activity against human HCC2998 cells assessed cell growth at 10 uM after 48 hrs by sulforhodamine B assay relative to control
[23] = tested on: HCT-116; assay: Anticancer activity against human HCT116 cells assessed cell growth at 10 uM after 48 hrs by sulforhodamine B assay relative to control
[24] = tested on: HCT-15; assay: Anticancer activity against human HCT15 cells assessed cell growth at 10 uM after 48 hrs by sulforhodamine B assay relative to control
[25] = tested on: HT-29; assay: Anticancer activity against human HT-29 cells assessed cell growth at 10 uM after 48 hrs by sulforhodamine B assay relative to control
[26] = tested on: KM12; assay: Anticancer activity against human KM12 cells assessed cell growth at 10 uM after 48 hrs by sulforhodamine B assay relative to control
[27] = tested on: SF-268; assay: Anticancer activity against human SF268 cells assessed cell growth at 10 uM after 48 hrs by sulforhodamine B assay relative to control
[28] = tested on: SF-295; assay: Anticancer activity against human SF295 cells assessed cell growth at 10 uM after 48 hrs by sulforhodamine B assay relative to control
[29] = tested on: SNB-19; assay: Anticancer activity against human SNB19 cells assessed cell growth at 10 uM after 48 hrs by sulforhodamine B assay relative to control
[30] = tested on: U-251; assay: Anticancer activity against human U251 cells assessed cell growth at 10 uM after 48 hrs by sulforhodamine B assay relative to control
[31] = tested on: LOX IMVI; assay: Anticancer activity against human LOXIMVI cells assessed cell growth at 10 uM after 48 hrs by sulforhodamine B assay relative to control
[32] = tested on: M14; assay: Anticancer activity against human M14 cells assessed cell growth at 10 uM after 48 hrs by sulforhodamine B assay relative to control
[33] = tested on: SK-MEL-2; assay: Anticancer activity against human SK-MEL-2 cells assessed cell growth at 10 uM after 48 hrs by sulforhodamine B assay relative to control
[34] = tested on: SK-MEL-28; assay: Anticancer activity against human SK-MEL-28 cells assessed cell growth at 10 uM after 48 hrs by sulforhodamine B assay relative to control
[35] = tested on: UACC-257; assay: Anticancer activity against human UACC257 cells assessed cell growth at 10 uM after 48 hrs by sulforhodamine B assay relative to control
[36] = tested on: IGROV-1; assay: Anticancer activity against human IGROV1 cells assessed cell growth at 10 uM after 48 hrs by sulforhodamine B assay relative to control
[37] = tested on: OVCAR-3; assay: Anticancer activity against human OVCAR-3 cells assessed cell growth at 10 uM after 48 hrs by sulforhodamine B assay relative to control
[38] = tested on: OVCAR-4; assay: Anticancer activity against human OVCAR4 cells assessed cell growth at 10 uM after 48 hrs by sulforhodamine B assay relative to control
[39] = tested on: OVCAR-8; assay: Anticancer activity against human OVCAR8 cells assessed cell growth at 10 uM after 48 hrs by sulforhodamine B assay relative to control
[40] = tested on: SK-OV-3; assay: Anticancer activity against human SKOV3 cells assessed cell growth at 10 uM after 48 hrs by sulforhodamine B assay relative to control
[41] = tested on: A498; assay: Anticancer activity against human A498 cells assessed cell growth at 10 uM after 48 hrs by sulforhodamine B assay relative to control
[42] = tested on: HL-60(TB); assay: Anticancer activity against human HL-60(TB) cells assessed cell growth at 10 uM after 48 hrs by sulforhodamine B assay relative to control
[43] = tested on: CCRF-CEM; assay: Anticancer activity against human CCRF-CEM cells assessed cell growth at 10 uM after 48 hrs by sulforhodamine B assay relative to control

## Cn1cc[n+](CCO)c1.O=S(=O)([N-]S(=O)(=O)C(F)(F)F)C(F)(F)F
[1]
  Activity: 97.02%
[2]
  Activity: 90.82%
[3]
  Activity: 125.47%
[4]
  Activity: 80.89%
[5]
  Activity: 86.93%
[6]
  Activity: 114.39%
[7]
  Activity: 92.39%
[8]
  Activity: 116.12%
[9]
  Activity: 114.11%
[10]
  Activity: 100.5%
[11]
  Activity: 108.29%
[12]
  Activity: 80.37%
[13]
  Activity: 72.12%
[14]
  Activity: 119.61%
[15]
  Activity: 99.55%
[16]
  Activity: 90.22%
[17]
  Activity: 74.53%
[18]
  Activity: 101.7%
[19]
  Activity: 114.83%
[20]
  Activity: 90.32%
[21]
  Activity: 132.21%
[22]
  Activity: 94.14%
[23]
  Activity: 100.02%
[24]
  Activity: 90.93%
[25]
  Activity: 112.28%
[26]
  Activity: 107.33%
[27]
  Activity: 104.78%
[28]
  Activity: 128.56%
[29]
  Activity: 93.36%
[30]
  Activity: 91.58%
[31]
  Activity: 90.65%
[32]
  Activity: 102.65%
[33]
  Activity: 97.37%
[34]
  Activity: 125.37%
[35]
  Activity: 93.35%
[36]
  Activity: 89%
[37]
  Activity: 120.42%
[38]
  Activity: 100.13%
[39]
  Activity: 93.89%
[40]
  Activity: 102.56%
[41]
  Activity: 79.55%
[42]
  Activity: 37.14%
[43]
  Activity: 72.37%

## CCCCCCCC[n+]1ccn(C)c1.F[P-](F)(F)(F)(F)F
[1]
  Activity: 67.29%
[2]
  Activity: 56.66%
[3]
  Activity: 57.87%
[4]
  Activity: 77.77%
[5]
  Activity: 74.78%
[6]
  Activity: 99.58%
[7]
  Activity: 97.14%
[8]
  Activity: 52.08%
[9]
  Activity: 60.35%
[10]
  Activity: 73.53%
[11]
  Activity: 21%
[12]
  Activity: 70.78%
[13]
  Activity: 135.51%
[14]
  Activity: 95.02%
[15]
  Activity: 82.75%
[16]
  Activity: 79.02%
[17]
  Activity: 96.72%
[18]
  Activity: 72.91%
[19]
  Activity: 92.86%
[20]
  Activity: 65.58%
[21]
  Activity: 66.27%
[22]
  Activity: 75.73%
[23]
  Activity: 56.26%
[24]
  Activity: 97.27%
[25]
  Activity: 61.42%
[26]
  Activity: 71.32%
[27]
  Activity: 96.73%
[28]
  Activity: 79.54%
[29]
  Activity: 82.83%
[30]
  Activity: 70.41%
[31]
  Activity: 70.03%
[32]
  Activity: 81.87%
[33]
  Activity: 83.03%
[34]
  Activity: 95.95%
[35]
  Activity: 72.49%
[36]
  Activity: 76.25%
[37]
  Activity: 86.51%
[38]
  Activity: 52.01%
[39]
  Activity: 78.96%
[40]
  Activity: 69.29%
[41]
  Activity: 85.75%
[42]
  Activity: 91.74%
[43]
  Activity: 84.88%

## CCCCCCCC[n+]1ccn(C)c1.[Cl-]
[1]
  Activity: 75.93%
[2]
  Activity: 66.65%
[3]
  Activity: 77.56%
[4]
  Activity: 85.09%
[5]
  Activity: 97.45%
[6]
  Activity: 99.82%
[7]
  Activity: 95.09%
[8]
  Activity: 70.46%
[9]
  Activity: 81.23%
[10]
  Activity: 87.08%
[11]
  Activity: 46.81%
[12]
  Activity: 63.96%
[13]
  Activity: 122.18%
[14]
  Activity: 88.57%
[15]
  Activity: 85.73%
[16]
  Activity: 90.78%
[17]
  Activity: 106.43%
[18]
  Activity: 75.79%
[19]
  Activity: 101.53%
[20]
  Activity: 72.78%
[21]
  Activity: 97.68%
[22]
  Activity: 77.19%
[23]
  Activity: 62.3%
[24]
  Activity: 111.4%
[25]
  Activity: 69.97%
[26]
  Activity: 81.14%
[27]
  Activity: 95.77%
[28]
  Activity: 101.39%
[29]
  Activity: 91.91%
[30]
  Activity: 79.77%
[31]
  Activity: 71.93%
[32]
  Activity: 87.47%
[33]
  Activity: 85.11%
[34]
  Activity: 120.13%
[35]
  Activity: 83.24%
[36]
  Activity: 96.33%
[37]
  Activity: 81.96%
[38]
  Activity: 61.98%
[39]
  Activity: 77.68%
[40]
  Activity: 98.42%
[41]
  Activity: 101.4%
[42]
  Activity: 94.06%
[43]
  Activity: 121.49%
